The values below come from patent US20260356810A1, “NOVEL PIPERAZINE-BASED SULFONAMIDES AND THEIR USE AS NEUROPROTECTIVE AND/OR NEURORESTORATIVE AGENTS” (GENECODE, priority 2022, published 2026).

Molecules are shown by their SMILES.

For the experiment, the target named is T1, GFRα1-RET (Homo sapiens, UniProt P56159).
T1 construct: expressed in transfected cells; host or cells: MG87 murine fibroblast
T1 sequence (P56159 25-429 limits assumed): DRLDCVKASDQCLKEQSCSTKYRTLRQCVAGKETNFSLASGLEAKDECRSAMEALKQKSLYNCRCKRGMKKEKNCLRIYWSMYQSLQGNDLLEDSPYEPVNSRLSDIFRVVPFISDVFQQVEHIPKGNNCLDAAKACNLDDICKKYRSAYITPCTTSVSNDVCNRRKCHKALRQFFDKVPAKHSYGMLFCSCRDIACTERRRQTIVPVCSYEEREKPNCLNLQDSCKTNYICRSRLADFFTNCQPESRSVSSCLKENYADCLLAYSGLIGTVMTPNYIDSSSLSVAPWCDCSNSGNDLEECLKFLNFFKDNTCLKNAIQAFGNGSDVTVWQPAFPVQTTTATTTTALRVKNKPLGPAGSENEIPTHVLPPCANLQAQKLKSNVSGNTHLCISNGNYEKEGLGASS
T1 sequence (P07949 29-1114 partner): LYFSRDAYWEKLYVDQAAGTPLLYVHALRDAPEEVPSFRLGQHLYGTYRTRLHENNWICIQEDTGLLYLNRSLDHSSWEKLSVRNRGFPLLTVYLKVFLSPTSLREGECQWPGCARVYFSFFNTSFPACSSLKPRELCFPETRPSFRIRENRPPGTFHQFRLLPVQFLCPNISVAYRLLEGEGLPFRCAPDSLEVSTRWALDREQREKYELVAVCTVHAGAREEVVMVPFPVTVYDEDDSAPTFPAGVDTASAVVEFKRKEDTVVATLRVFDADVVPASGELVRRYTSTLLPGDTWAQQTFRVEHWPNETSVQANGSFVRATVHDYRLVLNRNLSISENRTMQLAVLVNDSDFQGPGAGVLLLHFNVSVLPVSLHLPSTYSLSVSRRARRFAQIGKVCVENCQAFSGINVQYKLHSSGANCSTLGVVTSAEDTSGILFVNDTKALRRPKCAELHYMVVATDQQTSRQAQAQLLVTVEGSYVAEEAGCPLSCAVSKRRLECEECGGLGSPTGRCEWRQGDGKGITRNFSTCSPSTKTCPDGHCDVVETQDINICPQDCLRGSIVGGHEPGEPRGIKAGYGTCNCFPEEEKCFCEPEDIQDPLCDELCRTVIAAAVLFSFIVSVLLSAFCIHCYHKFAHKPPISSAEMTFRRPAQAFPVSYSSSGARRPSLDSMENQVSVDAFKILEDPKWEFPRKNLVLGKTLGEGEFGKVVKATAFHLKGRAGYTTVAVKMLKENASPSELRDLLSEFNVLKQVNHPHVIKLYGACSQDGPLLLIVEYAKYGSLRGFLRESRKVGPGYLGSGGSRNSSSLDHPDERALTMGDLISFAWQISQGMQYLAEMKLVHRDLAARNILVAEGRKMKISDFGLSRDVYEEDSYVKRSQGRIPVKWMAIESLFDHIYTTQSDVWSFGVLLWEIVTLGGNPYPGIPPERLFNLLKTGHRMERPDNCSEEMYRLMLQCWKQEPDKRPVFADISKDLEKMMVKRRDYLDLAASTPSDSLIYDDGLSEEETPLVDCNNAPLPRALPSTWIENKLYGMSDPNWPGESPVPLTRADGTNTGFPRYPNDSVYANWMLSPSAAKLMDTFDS
Put plainly: Luciferase assay: activation of Elk1 signaling in reporter-gene cells expressing GFRα1-RET (MG87 murine fibroblast stably transfected with PathDetect Elk-1, GFRα1, and RET). It is filed as cell-based. The following applies: Table 4; MG87 murine fibroblasts with PathDetect Elk-1, GFRα1, RET; 6 concentrations, duplicate, two times independently; agonist/activator activity; read-out: Luciferase Assay EC50. As for the experimental part: The purpose of this experiment was to evaluate the GFRα1-RET activity of the compounds 001-060 according to the invention.
The compounds were tested for their activating activity of Elk1 signaling using the previously developed reporter-gene-based system in cells expressing GFRα1-RET (MG87 murine fibroblast stably transfected with PathDetect Elk-1, GFRα1, and RET) disclosed in Sidorova, Y. A. et al.: “Persephin signaling through GFRα1: The potential for the treatment of Parkinson's disease.” Molecular and Cellular Neuroscience, July 2010, Vol. 44, pp. 223-232. DOI: 10.1016/j.mcn.2010.03.009. For EC50 determination, a dose-response test was performed using 6 concentrations of each tested compound. Dose-response curves were fitted using the sigmoidal dose-response (variable slope) analysis in GraphPad Prism program (Graph Pad Inc) and EC50 of agonist/activator activity was calculated. Dose-response experiments were all performed in duplicate, two times independently.
The compounds were tested for their activating activity of Elk1 signaling using the same materials and methods than for the compounds according to the invention (Example 2 herein, section “Materials and methods”).
As a reminder, the EC50 is the concentration giving half of the maximal effect. In the case of `COc1ccc(S(=O)(=O)NC2(C)CCCCC2)cc1N1CCN(C(=O)c2ccc(F)cc2Cl)CC1` [Compound 035, 3-[4-(2-chloro-4-fluoro-benzoyl)piperazin-1-yl]-4-methoxy-N-(1-methylcyclohexyl)benzenesulfonamide], the EC50 was 1 to 5 µM.
Then `COc1ccc(S(=O)(=O)N(C)CCCC(F)(F)F)cc1N1CCN(C(=O)c2ccc(F)cc2Cl)CC1` [Compound 037, 3-[4-(2-chloro-4-fluoro-benzoyl)piperazin-1-yl]-4-methoxy-N-methyl-N-(4,4,4-trifluorobutyl)benzenesulfonamide], with 10 to 50 µM; and `CCCN(C)S(=O)(=O)c1ccc(OC)c(N2CCN(C(=O)c3ccc(F)cc3Cl)CC2)c1` [Compound 030, 3-[4-(2-chloro-4-fluoro-benzoyl)piperazin-1-yl]-4-methoxy-N-methyl-N-propyl-benzenesulfonamide], with 1 to 5 µM; and `COc1ccc(S(=O)(=O)N(C)Cc2cccc(Cl)c2)cc1N1CCN(C(=O)c2ccc(F)cc2Cl)CC1` [Compound 020, 3-[4-(2-chloro-4-fluoro-benzoyl)piperazin-1-yl]-N-[(3-chlorophenyl)methyl]-4-methoxy-N-methyl-benzenesulfonamide], with 1 to 5 µM.
Take `CCCN(C)S(=O)(=O)c1ccc(OC)c(N2CCN(C(=O)c3cc(F)c(F)cc3Cl)CC2)c1` [Compound 005, 3-[4-(2-chloro-4,5-difluoro-benzoyl)piperazin-1-yl]-4-methoxy-N-methyl-N-propyl-benzenesulfonamide]: the EC50 was 1 to 5 µM.
Then `COc1ccc(S(=O)(=O)N2CCC(c3ccccc3)C2)cc1N1CCN(C(=O)c2ccc(F)cc2Cl)CC1` (centres unmarked) [Compound 028, (2-chloro-4-fluoro-phenyl)-[4-[2-methoxy-5-[3-phenylpyrrolidin-1-yl]sulfonyl-phenyl]piperazin-1-yl]methanone], with 1 to 5 µM; and `COc1ccc(S(=O)(=O)N2CCC(=Cc3ccccc3)CC2)cc1N1CCN(C(=O)c2ccc(F)cc2Cl)CC1` [Compound 023, [4-[5-[(4-benzylidene-1-piperidyl)sulfonyl]-2-methoxy-phenyl]piperazin-1-yl]-(2-chloro-4-fluoro-phenyl)methanone], with below 1 µM; and `CCCN(C)S(=O)(=O)c1ccc(OCCO)c(N2CCN(C(=O)c3ccc(F)cc3C(F)(F)F)CC2)c1` [Compound 049, 3-[4-[4-fluoro-2-(trifluoromethyl)benzoyl]piperazin-1-yl]-4-(2-hydroxyethoxy)-N-methyl-N-propyl-benzenesulfonamide], with 10 to 50 µM.
